Where two headings read alike, the source gives them in different places.
Assays:
5-HT3A receptor = target: T1, 5-HT3A receptor (Homo sapiens, UniProt P46098); assay type: binding
T1 sequence (P46098 24-478): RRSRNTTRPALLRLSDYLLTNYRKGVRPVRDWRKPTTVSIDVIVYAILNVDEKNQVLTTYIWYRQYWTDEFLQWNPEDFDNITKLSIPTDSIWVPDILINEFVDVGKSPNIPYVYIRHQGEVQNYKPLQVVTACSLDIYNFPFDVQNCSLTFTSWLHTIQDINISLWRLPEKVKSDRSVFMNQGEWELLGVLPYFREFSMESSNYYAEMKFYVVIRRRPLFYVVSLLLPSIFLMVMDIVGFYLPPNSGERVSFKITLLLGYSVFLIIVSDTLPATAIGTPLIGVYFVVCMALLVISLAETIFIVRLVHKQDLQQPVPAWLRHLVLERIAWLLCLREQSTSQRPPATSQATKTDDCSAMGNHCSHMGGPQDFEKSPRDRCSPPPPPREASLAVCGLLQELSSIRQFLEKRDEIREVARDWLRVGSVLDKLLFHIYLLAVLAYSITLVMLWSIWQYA

Glycine = assay: single point radioligand competition binding; design: species or system rat; conditions: 0.1 µM
[1] = compared to quinoline compound 51
[2] = compared to parent isoquinoline compound 52

SMILES: CNc1nc(N2CCN(C)CC2)nc2ccc(Cl)cc12 [Compound 6]
- fold increase in affinity (5-HT3A receptor; compared to compound 1): 16 fold

SMILES: CN1CCN(c2nc(O)c3cc(Cl)ccc3n2)CC1 [Compound 48]
- fold reduction in affinity (5-HT3A receptor): ~500 fold

SMILES: CN1CCN(c2ncc3cc(Cl)ccc3n2)CC1 [Compound 11, 6-Chloro-2-(4-methylpiperazin-1-yl)quinazoline]
- fold reduction in affinity (5-HT3A receptor; compared to compound 6): ~10 fold

SMILES: CN1CCN(c2cnc3ccccc3c2)CC1 [Compound 35, 3-(4-Methylpiperazin-1-yl)quinoline]
- fold drop in affinity (5-HT3A receptor; compared to (iso)quinolines 51 and 52): > 250 fold

SMILES: CN1CCN(c2nc(N)c3ccccc3n2)CC1 [Compound 22]
- selectivity for the 5-HT3A receptor over the H4R (5-HT3A receptor; H4R affinity from ref 35): ~40 000 fold
- % inhibition of control specific binding ± s.e.m. (Glycine): <15%

SMILES: CNc1cc(N2CCN(C)CC2)nc2ccccc12 [Compound 31, N-Methyl-2-(4-methylpiperazin-1-yl)quinolin-4-amine]
- fold drop in affinity (5-HT3A receptor; [1]): ~30 fold

SMILES: CN1CCN(c2nc(N)c3cc(Cl)ccc3n2)CC1 [Compound 12]
- fold reduction in affinity (5-HT3A receptor): ~10 fold

SMILES: CN1CCN(c2ccc3c(N)cccc3n2)CC1 [Compound 46, 2-(4-Methylpiperazin-1-yl)quinolin-5-amine]
- fold drop in affinity (5-HT3A receptor; compared to compound 30): ~100 fold
- fold drop in affinity (5-HT3A receptor; [1]): ~1000 fold

SMILES: CNc1nc(N2CCN(C)CC2)cc2ccccc12 [Compound 40, N-Methyl-3-(4-methylpiperazin-1-yl)isoquinolin-1-amine]
- fold lower affinity (5-HT3A receptor; [2]): ~5 fold

SMILES: CNc1nc(N2CCN(C)CC2)nc2ccccc12 [Compound 21, N-Methyl-2-(4-methylpiperazin-1-yl)quinazolin-4-amine]
- fold reduction in affinity (5-HT3A receptor; compared to compound 6): ~5 fold

SMILES: CN1CCN(c2cnc3ccccc3n2)CC1 [Compound 50]
- fold lower affinity (5-HT3A receptor; compared to compounds 49, 51 and 52): 3–10 fold

SMILES: CN1CCN(c2nc(N(C)C)c3cc(Cl)ccc3n2)CC1 [Compound 13]
- fold reduction in affinity (5-HT3A receptor; compared to compound 6): ~10 fold

SMILES: CN1CCN(c2cc3ccccc3c(N)n2)CC1 [Compound 39, 3-(4-Methylpiperazin-1-yl)isoquinolin-1-amine]
- fold lower affinity (5-HT3A receptor; [2]): 140 fold

From publication PMC3504484 (Journal of Medicinal Chemistry, 2012)
